# Results reported in patent US5066674A, “Carbamate inhibitors of cholesterol esterase and their use as hypolipidemic and hypocaloric agents” (University of Iowa Research Foundation, priority 1990, dated 1991).
# Molecular target: Pancreatic cholesterol esterase (CEase)
# Assay: CEase-catalyzed hydrolysis of p-nitrophenylbutyrate (PNPB), irreversible inhibition timecourse
# Format: biochemical
# Conditions: for Second-order inhibition rate constant ki/Ki: PNPB substrate, 25.0 °C, pH 7.3, 0.1M sodium phosphate, 0.1N NaCl, 1 mM Triton X100; for t1/2, half-life of irreversible inhibition: in presence of 10^-5 M inhibitor, calculated t1/2 = ln(2)/(ki[I])
# Procedure: The CEase-catalyzed hydrolysis of the water-soluble substrate p-nitrophenylbutyrate (PNPB) is the reaction that was routinely used to characterize irreversible inhibitors. The reaction is followed at 25.0±0.1° C. and pH 7.3 in 0.1M sodium phosphate buffer that contains 0.1N NaCl, 1 mM Triton X100, and the appropriate concentrations of CEase and PNPB. Characterization of inhibitors occurs in three steps: First, inhibitor is added to CEase and the percent activity of the enzyme is measured as a function of time. A corresponding control (contains no inhibitor) measures the 100% activity level. Secondly, the pseudo-first order inhibition rate constant is calculated from the activity versus time data.
# %A=(%AO -%Ainf)e^-kt +%Ainf (1)
# The pseudofirst order inhibition rate constant is plotted versus [I]. If the plot is linear, the second-order inhibition rate constant, ki /Ki, is the slope of a linear-leastsquares fit of the plot. And, thirdly, if plot is nonlinear and hyperbolic, the following inhibition mechanism is indicated: [drawing 5] In this mechanism, the inhibitor first forms a reversible, noncovalent complex, EI, with the enzyme. An enzymic nucleophile, presumably the active site serine (cf. Scheme I) then attacks the carbonyl carbon of the carbamate functionality of the inhibitor, with subsequent expulsion of the aromatic leaving group. For the above mechanism, the dependence of k on [I] is described by the following equation: [formula] […] From this fit the maximum first-order inhibition rate constant (ki) and the dissociation constant of EI (Ki) were determined, and consequently ki /Ki could be calculated.
SMILES,Second-order inhibition rate constant ki/Ki,Irreversible inhibition of CEase (statement in words) (comparison of second-order inhibition rate constants of Table I),"t1/2, half-life of irreversible inhibition"
CCCCCCCCNC(=O)Oc1ccc2ccccc2c1 [2-Naphthyl n-Octyl Carbamate],1350 M⁻¹ s⁻¹,most potent irreversible carbamate inhibitor of CEase,0.86 min
CCCCNC(=O)Oc1ccc(NC(C)=O)cc1 [p-Acetamidophenyl n-Butyl Carbamate],40 M⁻¹ s⁻¹,–,29 min
CCCCCCNC(=O)Oc1ccc(NC(C)=O)cc1 [p-Acetamidophenyl n-Hexyl Carbamate],493 M⁻¹ s⁻¹,–,2.3 min
CCCCCCCCNC(=O)Oc1ccc(NC(C)=O)cc1 [p-Acetamidophenyl n-Octyl Carbamate],100 M⁻¹ s⁻¹,–,11.6 min
CCCCCNC(=O)Oc1ccc(NC(C)=O)cc1 [p-Acetamidophenyl n-Pentyl Carbamate],100 M⁻¹ s⁻¹,–,11.6 min
